Assay results from PMC6272662, “Trypanocidal Activity of Long Chain Diamines and Aminoalcohols” (Molecules, 2015).

Tests used:
in vitro = settings: mouse
Procedure: The mouse cell lines J774.2 macrophages and NCTC clone 929 fibroblasts were used and cultured in plastic culture flasks. J774.2 and NCTC-929 cells were grown using DMEM and BME without phenol-red, respectively. Both media were supplemented with 10% heat inactivated fetal calf serum, 2 mM glutamine, 100 U/mL penicillin and 100 μg/mL streptomycin. Cell cultures were maintained at 37 °C in a humidified atmosphere containing 5% CO2 and subpassaged once a week. Cells in the pre-confluence phase were harvested with an EDTA-trypsin solution for the experiments.
Unspecific cytotoxicity was evaluated over phagocytic macrophages J774.2 cell line. To study cytotoxicity on J774.2 cells, 200 μL of a suspension of 2 × 10^5 macrophages/mL were added to 96 well flat-bottom microplates (Sigma). Cells were allowed to attach for 24 h at 37 °C and then exposed to the compounds for 72 h at the same concentrations as used for drug screening. […] Each concentration was assayed by triplicate, in independent experiments. Cytotoxicity was assessed by the Trypan Blue and XTT techniques and LC50 was calculated as described above.

[1] = test system: Trypanosoma cruzi epimastigotes strain JEM (MHOM/CO/05/JEM); test: Epimastigote susceptibility assay, JEM strain (Trypan Blue and XTT); assay type: cell-based; settings: for JEM Strain SI (Selectivity Index: LC50-macrophages/IC50-epimastigotes): JEM strain epimastigotes vs J774.2 macrophages; for IC50 / JEM Strain PNFX (potency relative to NFX = IC50-NFX/IC50-compound; also called NI): epimastigotes, JEM strain; for IC50: 72 h at 28 °C, 0.1-70.0 µM, mean ± SEM
Procedure: (§1) For in vitro studies, the strains MHOM/CO/04/MG (MG), MHOM/CO/05/JEM (JEM) and CL Brener strain clone B5 (CL-B5) were used. The MG and JEM strains correspond to Group I and Haplotype Ia isolates from two Colombian patients in the acute phase, and CL-B5 is a strain stably transfected with Escherichia coli β-galactosidase gene (lacZ). Epimastigotes were grown in plastic culture flasks at 28 °C, in axenic liver-infusion tryptose (LIT) growth medium, supplemented with 10% heat inactivated (30 min at 56 °C) foetal calf serum (FCS; Sigma), […] hemin (Sigma), and 10 µg/mL gentamycin (Sigma) and harvested in the exponential phase for conducting the experiments. Cultures were continuously maintained in logarithmic growth by weekly passages.
(§2) Three different strains of T. cruzi were used for the primary screening on epimastigote forms. For strains MG and JEM, the screening assay was performed with approximately 1 × 10^5 epimastigotes in logaritmic growth phase in 200 μL of supplemented LIT medium per well in 96-well flat bottoned plates (Costar, Corning, Cornig, NY, USA). […] The plates were incubated for 72 h at 28 °C and all experimental conditions were evaluated in triplicate in three independent experiments. The epimastigote growth inhibition was microscopically determined by the Trypan Blue dye exclusion assay and XTT (2,3-bis-(2-methoxy-4-nitro-5-sulfophenyl)-5-[(phenylamino)carbonyl]-2H-tetrazolium hydroxide). Regarding the first method, an aliquot from every culture was suspended in 0.4% trypan blue solution for 5 min and cell viability was determined under microscope by counting live parasites in each condition in a Neubauer chamber. Anti-epimastigote activity percentage was calculated as (Parasite counts in control wells-Parasite counts in experimental wells) × 100/Parasite counts in control wells. Trypanocidal activity over both strains was also measured adding 50 μL of XTT solution per well to obtain a final concentration of 0.3 mg/mL. The plate was re-incubated 24 h in the dark at 37 °C and orange formazan solution formed, was spectrophotometrically quantified at 450 nm with a 630 nm reference filter, using an Ear400FT ELISA reader.
(§3) Furthermore the Selectivity Index (SI = mammalian cell LC50/epimastigote IC50) for each compound was calculated to compare the antiprotozoal activity with its respective mammalian cell cytotoxicity.

[2] = test system: Trypanosoma cruzi epimastigotes strain MG (MHOM/CO/04/MG); test: Epimastigote susceptibility assay, MG strain (Trypan Blue and XTT); assay type: cell-based; settings: for MG Strain SI (Selectivity Index: LC50-macrophages/IC50-epimastigotes): MG strain epimastigotes vs J774.2 macrophages; for IC50 / MG Strain PNFX (potency relative to NFX = IC50-NFX/IC50-compound; also called NI): MG strain; for IC50: 72 h at 28 °C, 0.1-70.0 µM, mean ± SEM
Procedure: as §1, §2, §3

[3] = Trypanosoma cruzi, 72 h, epimastigotes

Compound | CC50 at 72 h (in vitro) | JEM Strain SI (Selectivity Index: LC50-macrophages/IC50-epimastigotes) [1] | IC50 ([1]; Trypanosoma cruzi, 72 h) | JEM Strain PNFX (potency relative to NFX = IC50-NFX/IC50-compound; also called NI) [1] | MG Strain SI (Selectivity Index: LC50-macrophages/IC50-epimastigotes) [2] | IC50 [2, 3] | MG Strain PNFX (potency relative to NFX = IC50-NFX/IC50-compound; also called NI) ([2]; epimastigotes) | IC50 [1] | IC50 ([2]; epimastigotes) | times greater activity on the MG strain than the JEM strain ([2]; epimastigotes, MG vs JEM IC50)
CCCCCCCCCCCCCCC(CNCCCCCC)NC(=O)OC(C)(C)C (stereo not shown) [Compound 17] | 4.2 ± 0.05 µM | 0.1 | 30.6 ± 0.65 µM | 0.5 | 0.2 | 26.7 ± 0.25 µM | 0.8 | – | – | –
CCCCCCCCCCC(N)CO (stereo not shown) [Compound 1] | 14 ± 0.9 µM | 0.4 | 33 ± 1.7 µM | 0.4 | 1.0 | 14.5 ± 3.15 µM | 1.5 | – | – | –
CCCCCCCCCCCCCCC(N)CN (stereo not shown) [Compound 19] | 78.1 ± 0.85 µM | 2.9 | 26.6 ± 0.7 µM | 0.6 | 4.1 | 19.2 ± 2.9 µM | 1.1 | – | – | –
CCCCCCCCCCCCCCC(CN(CCCCCC)CCCCCC)NC(=O)OC(C)(C)C (stereo not shown) [Compound 18] | – | – | > 70 µM | – | – | > 70 µM | – | > 70 µM | > 70 µM | –
CCCCCCCCCCCCCCCCC(N)CN(CC)CC (stereo not shown) [Compound 21] | 9.3 ± 0.5 µM | – | > 70 µM | – | 0.2 | 42.2 ± 1.4 µM | 0.5 | – | – | –
CCCCCCCCCCCCCCC(CO)N(CC)CC (stereo not shown) [Compound 10] | 5.6 ± 0.27 µM | – | > 70 µM | – | – | > 70 µM | – | – | – | –
CCCCCCCCCCCCCCC(N)COCc1ccccc1 (stereo not shown) [Compound 12] | 27.7 ± 0.1 µM | 1.0 | 28.8 ± 1.2 µM | 0.5 | 0.8 | 34.4 ± 1.8 µM | 0.6 | – | – | –
CCCCCCCCCCC(CO)NCCCCCC (stereo not shown) [Compound 4] | 36.1 ± 2.3 µM | 1.0 | 37.2 ± 1.25 µM | 0.4 | 1.7 | 21.1 ± 1.25 µM | 1.0 | – | – | –
CCCCCCCCCCCCCCC(N)CNCCCCCC (stereo not shown) [Compound 20] | 5 ± 0.1 µM | 0.1 | > 70 µM | 0.3 | 0.2 | 42.2 µM | 0.6 | 48.8 ± 1.05 µM | 32.9 ± 1.25 µM | –
CCCCCCCCCCCCCCCCC(N)CO (stereo not shown) [Compound 3] | 3 ± 0.24 µM | 0.3 | 9.9 ± 1.65 µM | 1.5 | 0.1 | 46.2 ± 2.5 µM | 0.5 | – | – | –
CCCCCCCCCCCCCCCCC(CO)NCCCCCC (stereo not shown) [Compound 8] | 26 ± 0.2 µM | – | > 70 µM | – | – | > 70 µM | – | – | – | –
CCCCCCCCCCCCCCC(COCc1ccccc1)NCCCC (stereo not shown) [Compound 13] | – | – | > 70 µM | – | – | > 70 µM | – | – | – | –
CCCCCCCCCCCCCCCCC(CO)N(CCCC)CCCC (stereo not shown) [Compound 11] | – | – | 50.3 ± 0.1 µM | 0.3 | – | > 70 µM | – | – | – | –
CCCCCCCCCCCCCCC(CO)NCCCCCC (stereo not shown) [Compound 7] | 8.2 ± 1.55 µM | – | > 70 µM | – | 1.3 | 6 µM | 3.5 | > 70 µM | 6.1 ± 0.15 µM | 11
